Active and inactive are the calls of the source. No cut-off for these calls is given here.
Assays:
PBMC = assay: Inhibition of concanavalin A-induced IFN-gamma production in human PBMC cells; assay type: functional, cell-based
Plasma [1] = assay: Stability in mouse plasma; assay type: ADME, cell-free
Plasma [2] = assay: Stability in rat plasma; assay type: ADME, cell-free
Plasma [3] = assay: Stability in human plasma; assay type: ADME, cell-free
[4] = Cmax in mouse plasma at 100 mg/kg, ip; assay type: ADME, organism-based; design: dose 100 mg/kg, route intraperitoneal
[5] = Cmax in mouse plasma at 15 mg/kg, ip; assay type: ADME, organism-based; design: dose 15 mg/kg, route intraperitoneal
Mus musculus [6] = assay: Inhibition of dextran sulfate sodium-induced weight loss in mouse at 150 mg/kg, ip administered daily for 10 days by macroscopic analysis; assay type: functional, organism-based; design: dose 150 mg/kg
Mus musculus [7] = assay: Suppression of dextran sulfate sodium-induced colitis in mouse assessed as improved rectal bleeding index at 150 mg/kg, ip administered daily for 10 days by macroscopic analysis; assay type: functional, organism-based; design: dose 150 mg/kg
Mus musculus [8] = assay: Suppression of dextran sulfate sodium-induced colitis in mouse assessed as decrease in disease activity index at 150 mg/kg, ip administered daily for 10 days by macroscopic analysis; assay type: functional, organism-based; design: dose 150 mg/kg
Mus musculus [9] = assay: Reversal of dextran sulfate sodium-induced shortening of colon in mouse at 150 mg/kg, ip administered daily for 10 days by macroscopic analysis; assay type: functional, organism-based; design: dose 150 mg/kg
Mus musculus [10] = assay: Decrease in dextran sulfate sodium-induced edema in mouse at 150 mg/kg, ip administered daily for 10 days by histological analysis; assay type: functional, organism-based; design: dose 150 mg/kg
Mus musculus [11] = assay: Suppression of dextran sulfate sodium-induced colitis in mouse assessed as inhibition of leukocyte infiltration in colonic mucosa at 150 mg/kg, ip administered daily for 10 days by histological analysis; assay type: functional, organism-based; design: dose 150 mg/kg
Mus musculus [12] = assay: Protection against dextran sulfate sodium-induced crypt damage in mouse at 150 mg/kg, ip administered daily for 10 days by histological analysis; assay type: functional, organism-based; design: dose 150 mg/kg
Mus musculus [13] = assay: Blockade of dextran sulfate sodium-induced mTOR activation in mouse at 150 mg/kg, ip administered daily for 10 days by Western blot analysis; assay type: functional, organism-based; design: dose 150 mg/kg

Stability (Plasma [1]): Stable
Stability (Plasma [2]): Stable
Stability (Plasma [3]): Stable
Cmax [4]: 180 µM
Cmax [5]: 30 µM
Structure (SMILES): CC(Cl)C(=O)Nc1ccc(C#N)nc1 (centres undefined)
Activity (PBMC): Dose-dependent effect
inhibition (Mus musculus [6]): Active
Activity (Mus musculus [7]): Active
Activity (Mus musculus [8]): Active
Activity (Mus musculus [9]): Active
Activity (Mus musculus [10]): Active
inhibition (Mus musculus [11]): Active
Activity (Mus musculus [12]): Active
Activity (Mus musculus [13]): Active

Reference: ChEMBL document CHEMBL1136899, “Synthesis and therapeutic evaluation of pyridyl based novel mTOR inhibitors” (Bioorg Med Chem Lett, 2009)
